From patent US10350199B2, “3-(1h-pyrrolo[2,3-b]pyridin-2-yl)-1h-indazoles and therapeutic uses thereof” (Samumed, LLC, priority 2015, dated 2019)

Key:
Type in all cases: cell-based
[1] = test system: Wnt activity (Sp5-Luc reporter, SW480 colon carcinoma cells); assay: Wnt activity screening assay, Sp5-Luc reporter gene in SW480 cells; settings: Homo sapiens; for inhibition at 10 µM: SW480, read-out: percent inhibition at 10 μM; for EC50: Sp5-Luc reporter, SW480 cells, overnight incubation
How it was run: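 SW480 cells stably transduced with lentiviral Sp5 promoter (eight TCF/LEF sites)-firefly luciferase, plated at 4,000 cells/well in 1% FBS medium and incubated overnight at 37° C. Luminescence read after BrightGlo addition, normalized to DMSO-only cells; EC50 from four-parameter variable-slope nonlinear regression.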

[2] = test system: SW480 colon cancer cells; assay: Cell viability assay (CellTiter-Blue), SW480 cells, four days; settings: Homo sapiens; for EC50: 96 h, SW480 cell viability, four days, CellTiter-Blue; for inhibition at 10 µM: SW480, read-out: percent inhibition at 10 μM
How it was run: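 Fluorescence from resazurin reduced to resorufin by metabolically active cells was the read-out, taken after ~3 h with CellTiter-Blue.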

[3] = test system: primary human fibroblasts derived from IPF patients (LL29 cells) treated with TGF-β1; assay: Inhibition of the fibrotic process: αSMA staining in TGF-β1 treated LL29 fibroblasts; settings: Fibroblast; for EC50: 96 h, LL29 cells, TGF-β1 20 ng/mL, 4 days, % αSMA positive cells; for inhibition at 10 µM: read-out: percent inhibition at 10 μM
How it was run: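 IPF-patient-derived LL29 lung fibroblasts in F12 with 1% FBS, stimulated with TGF-β1 alongside compound; TGF-β1 plus DMSO wells served as controls. After 4 days, nuclei stained with 1 μM SYTOX green for 30 min at room temperature, alongside αSMA staining.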

[4] = test system: primary human mesenchymal stem cells (hMSCs); assay: Induction of chondrogenesis in human mesenchymal stem cells (nodule area, Rhodamine B/Nile Red); settings: hMSC chondrogenesis; for Emax: relative to TGF-β3 (10 ng/mL) positive control, read-out: Max. Activity as % TGF-β3 activity; for EC50: concentration required to induce 50% levels of chondrogenesis of TGF-β3 positive control, read-out: Conc (nM) of 50% TGF-β3 activity
From the text: Representative compounds were screened using primary human mesenchymal stem cells (hMSCs) to determine their ability to induce chondrogenesis (process by which cartilage is developed).
Primary human mesenchymal stem cells (hMSCs) were purchased from Lonza (Walkersville, Md.) and expanded in Mesenchymal Stem Cell Growth Media (Lonza). Cells between passage 3 and 6 were used for the experiments.
Area of nodules in each well was normalized to the average of 3 DMSO treated wells on the same plate using Excel (Microsoft Inc.). The normalized averages (fold change over DMSO) of 2 or 3 replicate wells for each compound concentration were calculated. Due to solubility limitations of some of the compounds, curve fitting was incomplete leading to inaccurate EC50 determinations.
Using TGF-β3 as a positive control, the concentration of representative compounds required to induce 50% levels of chondrogenesis is reported. In addition, the maximum activity of each compound and the respective dose that each compound reached maximum chondrogenesis activity is reported.

[5] = test system: IL-6 (THP-1 human monocyte cell line); assay: IL-6 inhibition in LPS-stimulated THP-1 cells (HTRF); settings: for EC50: IL-6 inhibition, LPS-stimulated THP-1 cells, HTRF; for inhibition at 10 µM: THP-1, read-out: percentage in parentheses beside EC50 >10 (IL-6 inhibition)
How it was run: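 THP-1 cells kept 24 h in 1% FBS medium, treated 2 h at 37 °C, then stimulated with 500 ng/mL LPS for another 22 h. IL-6 measured by HTRF as the 665/620 nm ratio; EC50 from a four-parameter fit normalized to DMSO controls.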

Row | EC50 [1] | EC50 [2] | EC50 [5] | EC50 [4] | Structure (SMILES) | inhibition at 10 µM [1] | EC50 [3] | Emax [4] | inhibition at 10 µM [2] | inhibition at 10 µM [3] | inhibition at 10 µM [5]
1 | > 10000 nM | 352 nM | 347 nM | – | c1cncc(-c2ccc3[nH]nc(-c4cc5c(-c6ccsc6)ccnc5[nH]4)c3c2)c1 [Compound 284, 5-(Pyridin-3-yl)-3-(4-(thiophen-3-yl)-1H-pyrrolo[2,3-b]pyridin-2-yl)-1H-indazole] | 38% | 2200 nM | 39% | – | – | –
2 | > 10000 nM | > 10000 nM | > 10000 nM | 30 nM | c1cc(-c2ccsc2)c2cc(-c3n[nH]c4ccc(-c5cncc(CN6CCCCC6)c5)cc34)[nH]c2n1 [Compound 295, 5-(5-(Piperidin-1-ylmethyl)pyridin-3-yl)-3-(4-(thiophen-3-yl)-1H-pyrrolo[2,3-b]pyridin-2-yl)-1H-indazole] | 37.1% | > 10000 nM | 73% | 2.1% | 16.8% | 34.9%
3 | 4280 nM | > 10000 nM | 1010 nM | 100 nM | Cc1ccncc1-c1ccc2[nH]nc(-c3cc4c(-c5ccoc5)ccnc4[nH]3)c2c1 [Compound 313, 3-(4-(Furan-3-yl)-1H-pyrrolo[2,3-b]pyridin-2-yl)-5-(4-methylpyridin-3-yl)-1H-indazole] | – | > 10000 nM | 67% | 0% | 36.3% | –
4 | 890 nM | 9200 nM | 694 nM | – | CC(C)(C)CC(=O)Nc1cncc(-c2ccc3[nH]nc(-c4cc5c(-c6ccoc6)ccnc5[nH]4)c3c2)c1 [Compound 324, N-(5-(3-(4-(Furan-3-yl)-1H-pyrrolo[2,3-b]pyridin-2-yl)-1H-indazol-5-yl)pyridin-3-yl)-3,3-dimethylbutanamide] | – | > 10000 nM | 21% | – | 0% | –
5 | 563 nM | 465 nM | 166 nM | 900 nM | Fc1cccc(-c2ccnc3[nH]c(-c4n[nH]c5ccc(C6CCNCC6)cc45)cc23)c1 [Compound 505, 3-(4-(3-Fluorophenyl)-1H-pyrrolo[2,3-b]pyridin-2-yl)-5-(piperidin-4-yl)-1H-indazole] | – | 335 nM | 103% | – | – | –
6 | > 10000 nM | > 10000 nM | 586 nM | – | Cn1cc(-c2ccc3[nH]nc(-c4cc5c(-c6cccnc6)ccnc5[nH]4)c3c2)cn1 [Compound 556, 5-(1-Methyl-1H-pyrazol-4-yl)-3-(4-(pyridin-3-yl)-1H-pyrrolo[2,3-b]pyridin-2-yl)-1H-indazole] | 20% | 191 nM | 28% | 0% | – | –
7 | > 10000 nM | > 10000 nM | > 10000 nM | – | CN1CCN(c2ccnc3[nH]c(-c4n[nH]c5ccc(-c6cncc(NC(=O)CC7CCNCC7)c6)cc45)cc23)CC1 [Compound 641, N-(5-(3-(4-(4-Methylpiperazin-1-yl)-1H-pyrrolo[2,3-b]pyridin-2-yl)-1H-indazol-5-yl)pyridin-3-yl)-2-(piperidin-4-yl)acetamide] | 10.8% | > 10000 nM | 17% | 16.2% | 23.5% | 26%
8 | 3300 nM | 3940 nM | 205 nM | – | c1cnc2[nH]c(-c3n[nH]c4ccc(-c5cncc(OCCN6CCCC6)c5)cc34)cc2c1 [Compound 658, 5-(5-(2-(Pyrrolidin-1-yl)ethoxy)pyridin-3-yl)-3-(1H-pyrrolo[2,3-b]pyridin-2-yl)-1H-indazole] | – | 1200 nM | 43% | – | – | –
9 | > 10000 nM | > 10000 nM | > 10000 nM | – | COc1cncc(-c2ccc3[nH]nc(-c4cc5c(-c6ccoc6)ccnc5[nH]4)c3c2)c1 [Compound 692, 3-(4-(Furan-3-yl)-1H-pyrrolo[2,3-b]pyridin-2-yl)-5-(5-methoxypyridin-3-yl)-1H-indazole] | 20% | > 10000 nM | 26% | 0% | 0% | 43.9%

Second part, the molecule before the results:

Row | Structure (SMILES) | EC50 [1] | EC50 [2] | EC50 [5] | EC50 [4] | inhibition at 10 µM [1] | EC50 [3] | Emax [4] | inhibition at 10 µM [2] | inhibition at 10 µM [3] | inhibition at 10 µM [5]
10 | c1cc(N2CCCCC2)c2cc(-c3n[nH]c4ccc(-c5cncc(CN6CCCC6)c5)cc34)[nH]c2n1 [Compound 182, 3-(4-(Piperidin-1-yl)-1H-pyrrolo[2,3-b]pyridin-2-yl)-5-(5-(pyrrolidin-1-ylmethyl)pyridin-3-yl)-1H-indazole] | > 10000 nM | 4080 nM | 315 nM | – | 36% | 7760 nM | 21% | – | – | –
11 | CN1CCN(c2ccnc3[nH]c(-c4n[nH]c5ccc(-c6cncc(N)c6)cc45)cc23)CC1 [Compound 227, 5-(3-(4-(4-Methylpiperazin-1-yl)-1H-pyrrolo[2,3-b]pyridin-2-yl)-1H-indazol-5-yl)pyridin-3-amine] | 1170 nM | > 10000 nM | 7340 nM | 100 nM | – | > 10000 nM | 50% | 42.3% | 51.2% | –
12 | CN1CCN(c2ccnc3[nH]c(-c4n[nH]c5ccc(-c6cncc(CN7CCCC7)c6)cc45)cc23)CC1 [Compound 238, 3-(4-(4-Methylpiperazin-1l-yl)-1H-pyrrolo[2,3-b]pyridin-2-yl)-5-(5-(pyrrolidin-1-ylmethyl)pyridin-3-yl)-1H-indazole] | 3480 nM | 4340 nM | > 10000 nM | – | – | 1920 nM | 22% | – | – | 29.4%
13 | CN1CCN(c2ccnc3[nH]c(-c4n[nH]c5ccc(-c6cncc(CNCc7ccccc7)c6)cc45)cc23)CC1 [Compound 248, N-Benzyl-1-(5-(3-(4-(4-methylpiperazin-1-yl)-1H-pyrrolo[2,3-b]pyridin-2-yl)-1H-indazol-5-yl)pyridin-3-yl)methanamine] | 3370 nM | 2170 nM | 7730 nM | – | – | 2260 nM | 17% | – | – | –
14 | Nc1cncc(-c2ccc3[nH]nc(-c4cc5cccnc5[nH]4)c3c2)c1 [Compound 255, 5-(3-(1H-Pyrrolo[2,3-b]pyridin-2-yl)-1H-indazol-5-yl)pyridin-3-amine] | 102 nM | 632 nM | 15 nM | – | – | 138 nM | 36% | – | – | –
15 | CC(C)C(=O)Nc1cncc(-c2ccc3[nH]nc(-c4cc5cccnc5[nH]4)c3c2)c1 [Compound 261, N-(5-(3-(1H-Pyrrolo[2,3-b]pyridin-2-yl)-1H-indazol-5-yl)pyridin-3-yl) isobutyramide] | 178 nM | 405 nM | 9 nM | 900 nM | – | 102 nM | 131% | – | – | –
16 | c1cnc2[nH]c(-c3n[nH]c4ccc(-c5cncc(CN6CCCCC6)c5)cc34)cc2c1 [Compound 267, 5-(5-(Piperidin-1-ylmethyl)pyridin-3-yl)-3-(1H-pyrrolo[2,3-b]pyridin-2-yl)-1H-indazole] | 1670 nM | 675 nM | 177 nM | 10 nM | – | 458 nM | 51% | – | – | –
17 | CCCCC(=O)Nc1cncc(-c2ccc3[nH]nc(-c4cc5cccnc5[nH]4)c3c2)c1 [Compound 271, N-(5-(3-(1H-Pyrrolo[2,3-b]pyridin-2-yl)-1H-indazol-5-yl)pyridin-3-yl) pentanamide] | 324 nM | 1060 nM | 23 nM | – | – | 712 nM | 34% | – | – | –
18 | O=C(Nc1cncc(-c2ccc3[nH]nc(-c4cc5cccnc5[nH]4)c3c2)c1)C1CCCC1 [Compound 274, N-(5-(3-(1H-Pyrrolo[2,3-b]pyridin-2-yl)-1H-indazol-5-yl)pyridin-3-yl) cyclopentanecarboxamide] | 271 nM | 656 nM | 18 nM | – | – | 427 nM | 30% | – | – | –
19 | c1cnc2[nH]c(-c3n[nH]c4ccc(-c5cncnc5)cc34)cc2c1 [Compound 279, 5-(Pyrimidin-5-yl)-3-(1H-pyrrolo[2,3-b]pyridin-2-yl)-1H-indazole] | > 10000 nM | > 10000 nM | 140 nM | 10 nM | 16.6% | 9840 nM | 84% | 17.9% | – | –
